Values joined by “and” are separate entries in the source; they are usually repeats but may differ in a detail not shown here. Equal values may be shown once.
Key:
[1] = test system: carrageenan-induced rat paw edema; assay: Carrageenan-induced rat paw edema assay; assay type: in vivo; settings: for Edema thickness (mm) ± SEM: n = 4
Description: Pretreatment of rats with compounds 7a–k, 8a–c, and 9a–c before injection with carrageenan in rat paw which induces inflammation and then the percentage of paw edema reduction was measured after certain hours according to previously reported procedures.

[2] = test system: Pseudomonas aeruginosa (ATCC 27853); assay: Antimicrobial screening (CO-ADD), growth inhibition at single concentration; assay type: cell-based; settings: ATCC27853, at 32 µg/mL concentration, read-out: growth inhibition % Pa (P. aeruginosa)
Description: (§1) The antimicrobial study was performed by CO-ADD (The Community for Antimicrobial Drug Discovery), funded by the Wellcome Trust (UK) and The University of Queensland (Australia). Evaluation of all synthesized compounds for their antimicrobial activities was done against five pathogenic bacteria, methicillin-resistant Staphylococcus aureus (ATCC 43300) as Gram-positive bacteria, Escherichia coli (ATCC 25922), Klebsiella pneumonia (ATCC 700603), Acinetobacter baumannii (ATCC 19606) and Pseudomonas aeruginosa (ATCC 27853) as Gram-negative bacteria and antifungal activity against two pathogenic fungal strains Candida albicans (ATCC 90028) and Cryptococcus neoformans var. grubii (H99; ATCC 208821) (Table 1).

[3] = test system: Acinetobacter baumannii (ATCC 19606); assay: as above; assay type: cell-based; settings: ATCC19606, at 32 µg/mL concentration, read-out: growth inhibition % Ab (A. baumannii)
Description: as §1

[4] = test system: methicillin-resistant Staphylococcus aureus (ATCC 43300); assay: as above; assay type: cell-based; settings: ATCC 43300 / MRSA, at 32 µg/mL concentration, read-out: growth inhibition % Sa (MRSA)
Description: as §1

human recombinant COX-2 = assay: In vitro COX inhibition colorimetric assay; assay type: biochemical; settings: COX-1 IC50/COX-2 IC50
Ovine COX-1 = target: T1, Ovine COX-1 (Ovis aries, UniProt P05979); assay: In vitro COX inhibition colorimetric assay; assay type: biochemical
T1 construct: purchased Cayman Chemical, Ann Arbor, MI, USA 760111
T1 sequence (P05979 25-600): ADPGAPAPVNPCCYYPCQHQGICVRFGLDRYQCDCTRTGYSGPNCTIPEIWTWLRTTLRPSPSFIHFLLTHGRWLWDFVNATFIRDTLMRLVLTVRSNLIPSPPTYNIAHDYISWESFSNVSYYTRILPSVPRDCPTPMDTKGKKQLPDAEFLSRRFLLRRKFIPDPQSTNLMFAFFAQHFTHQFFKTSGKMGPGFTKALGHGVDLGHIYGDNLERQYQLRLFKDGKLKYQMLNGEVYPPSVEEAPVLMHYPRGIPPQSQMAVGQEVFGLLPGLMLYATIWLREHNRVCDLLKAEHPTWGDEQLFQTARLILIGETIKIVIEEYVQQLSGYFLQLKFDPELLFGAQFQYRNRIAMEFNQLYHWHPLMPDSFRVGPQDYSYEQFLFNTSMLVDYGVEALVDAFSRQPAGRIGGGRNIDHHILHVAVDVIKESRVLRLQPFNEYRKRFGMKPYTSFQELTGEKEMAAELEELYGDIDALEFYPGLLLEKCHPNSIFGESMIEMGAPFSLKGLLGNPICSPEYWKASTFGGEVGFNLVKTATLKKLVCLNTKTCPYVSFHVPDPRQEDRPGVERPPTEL

[5] = test system: Candida albicans (ATCC 90028); assay: Antifungal screening (CO-ADD), growth inhibition at single concentration; assay type: cell-based; settings: ATCC90028, at 32 µg/mL concentration, read-out: growth inhibition % Ca (C. albicans)
Description: as §1

[6] = test system: Klebsiella pneumonia (ATCC 700603); assay: Antimicrobial screening (CO-ADD), growth inhibition at single concentration; assay type: cell-based; settings: Klebsiella pneumoniae, ATCC700603; at 32 µg/mL concentration; read-out: growth inhibition % Kp (K. pneumoniae)
Description: as §1

melting point [°C] | IC50 (Ovine COX-1) [µM] | SMILES | Edema inhibition % ([1]; 1 h) [%] | Edema thickness (mm) ± SEM ([1]; 1 h) [mm] | Edema inhibition % ([1]; 3 h) [%] | Edema thickness (mm) ± SEM ([1]; 3 h) [mm] | Edema inhibition % ([1]; 6 h) [%] | Edema thickness (mm) ± SEM ([1]; 6 h) [mm] | inhibition at 32 µg/mL [2] [%] | inhibition at 32 µg/mL [3] [%] | inhibition at 32 µg/mL [4] [%] | Selectivity index (SI) (human recombinant COX-2) | inhibition at 32 µg/mL [5] [%] | inhibition at 32 µg/mL [6] [%]
– | – | Cc1ccc(-c2cc(C(F)(F)F)nn2-c2ccc(S(N)(=O)=O)cc2)cc1 [Celecoxib, celecoxib, reference compound] | 68.9 | 0.810 ± 0.074 | 95.5 | 0.100 ± 0.009 | 94.7 | 0.100 ± 0.005 | – | – | – | – | – | –
228 to 230 | 12.4 | CS(=O)(=O)c1ccc(NN=Cc2c(-c3ccc(S(C)(=O)=O)cc3)[nH]c3ccccc23)cc1 [Compound 7b, 2-(4-(Methylsulfonyl)phenyl)-3-((2-(4-(methylsulfonyl)phenyl)hydrazono)methyl)-1H-indole] | 76.1 | 0.627 ± 0.045 | 91.2 | 0.196 ± 0.017 | 93.5 | 0.123 ± 0.009 | 3.8 | 35.5 | 25.6 | 124.10 | 9.55 | –
262 to 264 | 10.4 | Cc1ccc2[nH]c(-c3ccc(S(C)(=O)=O)cc3)c(/C=N/Nc3ccc(S(C)(=O)=O)cc3)c2c1 [Compound 7d, 5-Methyl-2-(4-(methylsulfonyl)phenyl)-3-((2-(4-(methylsulfonyl)phenyl) hydraz-ono)methyl)-1H-indole] | 51.6 | 1.270 ± 0.015 | 77.5 | 0.502 ± 0.044 | 78.6 | 0.405 ± 0.018 | – | 35 | 15.6 | 69.33 | 2.54 | 4.86
186 to 188 | 9.7 | Cc1ccc2[nH]c(-c3ccc(S(C)(=O)=O)cc3)c(/C=N/Nc3ccc(S(N)(=O)=O)cc3)c2c1 [Compound 7e, 4-(2-((5-Methyl-2-(4-(methylsulfonyl)phenyl)-1H-indol-3-yl)methylene) hydrazine-yl) benzenesulfonamide] | 53.9 | 1.209 ± 0.11 | 71.1 | 0.645 ± 0.01 | 79.9 | 0.381 ± 0.007 | – | 43.6 | 7.58 | 31.29 | 28.7 | –
159 to 161 | 9.73 | Cc1ccc2[nH]c(-c3ccc(S(C)(=O)=O)cc3)c(C=NNc3ccc(F)cc3)c2c1 [Compound 7f, 3-((2-(4-Fluorophenyl)hydrazono)methyl)-5-methyl-2-(4-(methylsulfonyl)phenyl)-1H-indole] | 60.5 | 1.036 ± 0.009 | 72.7 | 0.609 ± 0.03 | 79.2 | 0.394 ± 0.01 | – | 66.7 | 8.33 | 57.23 | 3.5 | 8.05
187 to 188 | 12.4 | CS(=O)(=O)c1ccc(N/N=C/c2c(-c3ccc(S(C)(=O)=O)cc3)[nH]c3ccc(F)cc23)cc1 [Compound 7h, 5-Fluoro-2-(4-(methylsulfonyl)phenyl)-3-((2-(4-(methylsulfonyl)phenyl) hydraz-ono)methyl)-1H-indole] | 75.4 | 0.645 ± 0.058 | 89.4 | 0.236 ± 0.008 | 92.7 | 0.138 ± 0.006 | 7.97 | 51.8 | 30.3 | 112.7 and 112.72 | 25.3 | 23.6
200 to 202 | 10.8 | CS(=O)(=O)c1ccc(-c2[nH]c3ccc(F)cc3c2C=NNc2ccc(F)cc2)cc1 [Compound 7j, 5-Fluoro-3-((2-(4-fluorophenyl)hydrazono)methyl)-2-(4-(methylsulfonyl)phenyl)-1H-indole] | 64.3 | 0.936 ± 0.064 | 78.6 | 0.477 ± 0.027 | 71 | 0.549 ± 0.013 | – | 46.2 | 30.6 | 98.18 | 1.91 | 12.3
210 to 212 | 10.6 | CS(=O)(=O)c1ccc(-c2[nH]c3ccccc3c2-c2nc3cc(Cl)ccc3[nH]2)cc1 [Compound 8a, 5-Chloro-2-(2-(4-(methylsulfonyl)phenyl)-1H-indol-3-yl)-1H-benzo[d]imidazole] | 52.5 | 1.246 ± 0.076 | 58 | 0.937 ± 0.046 | 56.4 | 0.826 ± 0.078 | – | – | 13.6 | 81.84 | 7.71 | –
217 to 219 | 11.2 | Cc1ccc2[nH]c(-c3ccc(S(C)(=O)=O)cc3)c(-c3nc4cc(Cl)ccc4[nH]3)c2c1 [Compound 8c, 5-Chloro-2-(5-methyl-2-(4-(methylsulfonyl)phenyl)-1H-indol-3-yl)-1H-benzo[d]imidazole] | 67.9 | 0.842 ± 0.062 | 71.9 | 0.627 ± 0.05 | 74.2 | 0.489 ± 0.032 | – | – | 4.62 | 93.58 | 1.65 | –
199 to 201 | 10.6 | CS(=O)(=O)c1ccc(-c2[nH]c3ccccc3c2C=NO)cc1 [Compound 9a, 2-(4-(Methylsulfonyl)phenyl)-1H-indole-3-carbaldehyde oxime] | 77.2 | 0.598 ± 0.050 | 61.8 | 0.852 ± 0.073 | 62.3 | 0.714 ± 0.052 | 2.49 | 42.1 | – | 81.84 | 9.15 | 14.8
212 to 214 | 8.24 | Cc1ccc2[nH]c(-c3ccc(S(C)(=O)=O)cc3)c(C=NO)c2c1 [Compound 9c, 5-Methyl-2-(4-(methylsulfonyl)phenyl)-1H-indole-3-carbaldehyde oxime] | 55.2 | – | 68.6 | 0.435 ± 0.033 | 61.7 | 0.504 ± 0.009 | – | 33.7 | – | 34.33 | 4.88 | 1.19
– | – | COc1ccc2c(c1)c(CC(=O)O)c(C)n2C(=O)c1ccc(Cl)cc1 [Indomethacin, indomethacin, reference compound] | 70.7 | 0.768 ± 0.050 | 96 | 0.075 ± 0.007 | 96.6 | 0.075 ± 0.004 | – | – | – | – | – | –

Source: paper PMC7106896, “Synthesis and biological evaluation of 2-(4-methylsulfonyl phenyl) indole derivatives: multi-target compounds with dual antimicrobial and anti-inflammatory activities” (BMC Chemistry, 2020)
